{"source": "patent US20070027109A1", "about": "(priority 2002, published 2007)", "key": {"[1]": {"tested_on": "Subtype O BCOF-01", "assay": "PBMC assay, HIV-1 subtype O", "assay_type": "cell-based", "details": "Subtype O BCOF-01, PBMC"}, "[2]": {"tested_on": "Subtype F BR/93/020", "assay": "PBMC assay, HIV-1 subtype F", "assay_type": "cell-based", "details": "Subtype F BR/93/020, PBMC"}, "[3]": {"tested_on": "SLKA", "assay": "PBMC assay, HIV-1 SLKA", "assay_type": "cell-based"}, "[4]": {"tested_on": "HIV-1 ADA", "assay": "Monocyte/macrophage assay, HIV-1 ADA (p24 ELISA)", "assay_type": "cell-based", "details": "monocytes", "source_text": "(§1) Peripheral blood monocytes were isolated from normal HIV-1 negative donors by plastic adherence following ficoll hypaque purification of the buffy coat, as described above for PBMCs. In many cases the same donor used to produce the PBMC populations was also used to produce monocyte/macrophages, however unlike PBMC population monocyte/macrophage, donors were never pooled. Following a two hour adherence in RPMI 1640 without phenol red supplemented with 10% human pooled AB serum (heat inactivated), 2 mM L-glutamine, 100 U/mL penicillin, 100 μg/mL streptomycin, 10 μg/mL gentamycin, cultures were washed to remove non-adherent cells. […] Adherent cells were assessed for purity by nonspecific esterase staining (a-napthyl butyrate specific esterase, Sigma Chemical Co.), and/or viability by Trypan Blue dye exclusion, counted and resuspended in RPMI 1640 supplemented with 10% Fetal Bovine Serum (heat inactivated), 2 mM L-glutamine, 100 U/mL penicillin, 100 μg/mL streptomycin, 10 μg/mL gentamycin at 1×10^6 monocytes per ml. […] HIV p24 antigen content to assess virus replication was measured at assay termination by a commercially available p24 ELISA assay (Coulter) on cell-free supernatants, and compound cytotoxicity by MTS dye reduction. […]\n(§2) ELISA kits were purchased from Coulter Electronics. […] Control curves were generated in each assay to accurately quantitate the amount of p24 antigen in each sample. […]"}, "[5]": {"tested_on": "HIV-1 RoJo", "assay": "PBMC assay, HIV-1 RoJo replication (RT activity)", "assay_type": "cell-based", "details": "for IC50: RoJo, PBMC; for IC50 (50% inhibition of virus replication): 6 days; for anti-viral activity against HIV-1 RoJo virus: in vitro", "source_text": "Human peripheral blood mononuclear cells from a minimum of two donors, that have been blasted with PHA and IL-2, were counted, viability determined by Trypan Blue dye exclusion and mixed in equal ratios. Pooled donors were used to minimize the variability observed between individual donors which results from quantitative and qualitative differences in HIV infection and overall response to the PHA and IL-2 of primary lymphocyte populations. […] Fifty microliters of cells were then distributed to the inner 60 wells of a 96 well round bottom microtiter culture plate in a standard format developed by the Infectious Disease Research department of Southern Research Institute. Each plate contains cell control wells (cells only), virus control wells (cells plus virus), and experimental wells (drug plus cells plus virus). Serially diluted compounds were added to the microtiter plate followed by the appropriate pretitered dilution of HIV-1 RoJo. All samples were assayed in triplicate with a replicate plate without virus for the determination of compound toxicity. The final volume per well was 200 μL. The assay was incubated for 6 days in a humidified atmosphere at 37° C., 5% CO2, after which supernatants were collected, for analysis of RT activity and sister plates analyzed for cell viability by MTS dye reduction. Wells were also examined microscopically and any abnormalities noted.\nReverse transcriptase (RT) activity was measured in cell-free supernatants. Tritiated thymidine triphosphate (NEN) (TTP) was resuspended in distilled H2O at 5 Ci/mL. Poly rA and oligo dT were prepared as a stock solution which was kept at −20° C. The RT reaction buffer was prepared fresh on a daily basis and consists of 125 μL 1.0 M EGTA, 125 μL dH2O, 110 μL 10% SDS, 50 μL 1.0 M Tris (pH 7.4), 50 μL 1.0 M DTT, and 40 μL 1.0 M MgCl2. These three solutions were mixed together in a ratio of two parts TTP, one part poly rA:oligo dT, and one part reaction buffer. Ten microliters of this reaction mixture were placed in a round bottom microtiter plate and 15 μL of virus containing supernatant was added and mixed. The plate was incubated at 37° C. in a water bath with a solid support to prevent submersion of the plate and incubated for 60 minutes. Following reaction, the reaction volume was spotted onto pieces of DE81 paper, washed 5 times for 5 minutes each in a 5% sodium phosphate buffer, two times for one minute each in distilled water, two times for one minute each in 70% ethanol, and then dried.\nThe IC50 and TC50 values were calculated by linear regression. The TI represents the ratio of the TC50/IC50, and is used to determine relative potency between compounds."}, "[6]": {"tested_on": "SIVmac251", "assay": "PBMC assay, SIVmac251", "assay_type": "cell-based, SIV"}, "[7]": {"tested_on": "Subtype C BR/92/025", "assay": "PBMC assay, HIV-1 subtype C", "assay_type": "cell-based", "details": "Subtype C BR/92/025, PBMC"}, "[8]": {"tested_on": "Subtype D UG/92/046", "assay": "PBMC assay, HIV-1 subtype D", "assay_type": "cell-based", "details": "Subtype D UG/92/046, PBMC"}, "[9]": {"tested_on": "Subtype A RW/92/016", "assay": "PBMC assay, HIV-1 subtype A", "assay_type": "cell-based", "details": "Subtype A RW/92/016, PBMC"}, "[10]": {"tested_on": "Subtype G Jv1083", "assay": "PBMC assay, HIV-1 subtype G", "assay_type": "cell-based"}, "[11]": {"tested_on": "WeJo", "assay": "PBMC assay, HIV-1 WeJo", "assay_type": "cell-based"}, "[12]": {"tested_on": "TEKI", "assay": "PBMC assay, HIV-1 TEKI", "assay_type": "cell-based"}, "[13]": {"tested_on": "HIV-1 Ba-L", "assay": "Monocyte/macrophage assay, HIV-1 Ba-L (p24 ELISA)", "assay_type": "cell-based", "details": "monocytes", "source_text": "as §1, §2"}, "[14]": {"tested_on": "Subtype B 302056 (91US056)", "assay": "PBMC assay, HIV-1 subtype B", "assay_type": "cell-based"}, "[15]": {"tested_on": "monocyte/macrophages", "assay": "MTS staining for cell viability, monocyte/macrophages", "assay_type": "cell-based, human", "source_text": "Peripheral blood monocytes were isolated from normal HIV-1 negative donors by plastic adherence following ficoll hypaque purification of the buffy coat, as described above for PBMCs. In many cases the same donor used to produce the PBMC populations was also used to produce monocyte/macrophages, however unlike PBMC population monocyte/macrophage, donors were never pooled. […] The monocytes were released from the plastic by vigorous pipetting with Ca^2+ and Mg^2+ free PBS. […] The monocytes (1×10^5 per 0.2 cm well) were then cultured for six days, allowing maturation of the cells to a macrophagelike phenotype. […] Cultures were washed a final time by media removal 24 hours post infection, fresh compound added and the cultures continued for an additional six days. The assays were preformed using a standardized microtiter plate format, which uses only the inner 60 wells of a 96 well plate for assay purposes. The outer rows contain media and acts an a evaporation barrier. Each plate contains cell control wells (cells only), virus control wells (cells plus virus), and experimental wells (drug plus cells plus virus). HIV p24 antigen content to assess virus replication was measured at assay termination by a commercially available p24 ELISA assay (Coulter) on cell-free supernatants, and compound cytotoxicity by MTS dye reduction. […]"}, "[16]": {"tested_on": "HIV-2 (CDC 310319)", "assay": "PBMC assay, HIV-2", "assay_type": "cell-based"}, "[17]": {"tested_on": "HIV-1 clinical isolates, SIV and HIV-2", "details": "all viruses of Table 8", "description": "The inhibition of HIV-1 ADA and BaL replication in monocyte/macrophages was also assessed.\n(§3) Human immunodeficiency virus type 1 (HIV-1) strains Ba-L, ADA, SIVmac251, HIV-2 (CDC3 10319) and the subtype representative strains (Table 6) were obtained from the NIAID AIDS Research and Reference Reagent Program. The low passage pediatric isolates SLKA, WeJo and TeKi were derived in the laboratories of Southern Research Institute."}, "[18]": {"tested_on": "MDR769", "details": "MDR769, PBMC", "description": "as §3\nPBMC assays were carried out as described in Example 6.\nReverse transcriptase (RT) activity was measured in cell-free supernatants as described in Example 6."}, "[19]": {"tested_on": "Subtype E CMU02", "assay": "PBMC assay, HIV-1 subtype E", "assay_type": "cell-based"}, "[20]": {"details": "IC50 basis, HIV-1 RoJo, PBMCs, Example 6"}}, "note": "“And” between values parts separate entries of the source, which are not always exact repeats. Equal entries are not always repeated. Where two headings read alike, the source gives them in different places."}
{"molecule": "Cc1cn([C@H]2C[C@H](N=[N+]=[N-])[C@@H](CO)O2)c(=O)[nH]c1=O", "note": "[AZT]", "values": [{"measurement": "IC50", "setting": "[1]", "value": 3, "unit": "nM"}, {"measurement": "IC50", "setting": "[2]; read-out: IC50", "value": 3, "unit": "nM"}, {"measurement": "IC50", "setting": "[3]", "value": 2, "unit": "nM"}, {"measurement": "IC50", "setting": "[4]", "value": 7, "unit": "nM"}, {"measurement": "IC50", "setting": "[5]; Example 7, read-out: IC50", "value": 2, "unit": "nM"}, {"measurement": "IC50", "setting": "[6]; read-out: IC50", "value": 2, "unit": "nM"}, {"measurement": "IC50", "setting": "[7]; read-out: IC50", "value": 5, "unit": "nM"}, {"measurement": "IC50", "setting": "[8]", "value": 1, "unit": "nM"}, {"measurement": "IC50", "setting": "[9]", "value": 1, "unit": "nM"}, {"measurement": "IC50", "setting": "[10]; read-out: IC50", "value": 6, "unit": "nM"}, {"measurement": "IC50", "setting": "[11]", "value": 3, "unit": "nM"}, {"measurement": "IC50", "setting": "[12]", "value": 10, "unit": "nM"}, {"measurement": "IC50", "setting": "[13]", "value": 4, "unit": "nM"}, {"measurement": "IC50", "setting": "[14]; read-out: IC50", "value": 10, "unit": "nM"}, {"measurement": "CC50", "setting": "[15]", "value": 1000, "unit": "nM"}, {"measurement": "IC50", "setting": "[16]; read-out: IC50", "value": 0.4, "unit": "nM"}]}
{"molecule": "dextran sulfate, 17-20% sulfur, molecular weight 39,700 [DES 17-20% Sulfation]", "values": [{"measurement": "IC50 (50% inhibition of virus replication)", "setting": "[5]; HIV-1 RoJo, PBMCs, Example 6", "value": "0.5 µg/mL and 1.0 µg/mL"}, {"measurement": "anti-viral activity against HIV-1 RoJo virus", "setting": "[5]", "value": "significant anti-viral activity"}]}
{"molecule": "sulfated dextran, 9.5% sulfur, molecular weight 30,000 [DES 9.5% Sulfation]", "values": [{"measurement": "fold less active than DES […] Sulfation", "setting": "[5]; HIV-1 RoJo infected PBMCs, Example 7", "value": 37, "unit": "fold"}, {"measurement": "IC50 (50% inhibition of virus replication)", "setting": "[5]; HIV-1 RoJo, PBMCs, Example 6", "value": 19.4, "unit": "µg/mL"}, {"measurement": "fold less active than DES 17-20% Sulfation", "setting": "[5]; [20]", "value": 39, "unit": "fold"}, {"measurement": "fold less active than DES […] Sulfation", "setting": "[5]; [20]", "value": 12, "unit": "fold"}, {"measurement": "anti-viral activity against HIV-1 RoJo virus", "setting": "[5]", "value": "significant anti-viral activity"}, {"measurement": "IC50s, range over the virus panel", "setting": "[17]", "value": "5.1 to >100 μg/ml"}, {"measurement": "IC50", "setting": "[10]", "value": "> 100", "unit": "µg/mL"}, {"measurement": "IC50", "setting": "[16]", "value": 5.1, "unit": "µg/mL"}, {"measurement": "IC50", "setting": "[18]", "value": 13, "unit": "µg/mL"}]}
{"molecule": "sulfated dextran, 12.2% sulfur, molecular weight 36,000 [DES 12.5% Sulfation]", "values": [{"measurement": "IC50", "setting": "[2]", "value": ".3 µg/mL"}, {"measurement": "IC50", "setting": "[19]", "value": ".7 µg/mL"}, {"measurement": "IC50 (50% inhibition of virus replication)", "setting": "[5]; HIV-1 RoJo, PBMCs, Example 6", "value": 1.6, "unit": "µg/mL"}, {"measurement": "IC50", "setting": "[5]; Example 7", "value": ".7 µg/mL"}, {"measurement": "anti-viral activity against HIV-1 RoJo virus", "setting": "[5]", "value": "significant anti-viral activity"}, {"measurement": "IC50", "setting": "[6]", "value": ".6 µg/mL"}, {"measurement": "IC50", "setting": "[7]", "value": 10.3, "unit": "µg/mL"}, {"measurement": "IC50", "setting": "[10]", "value": 11.7, "unit": "µg/mL"}, {"measurement": "IC50", "setting": "[14]", "value": ".8 µg/mL"}, {"measurement": "IC50", "setting": "[18]", "value": ".7 µg/mL"}]}
